# Assay results reported in article PMC10451668, “Natural Acetogenins, Chatenaytrienins-1, -2, -3 and -4, Mitochondrial Potential Uncouplers and Autophagy Inducers—Promising Anticancer Agents” (Antioxidants, 2023).
# How the values were obtained:
# Type in all cases: cell-based, human
# U937 = test: Cytotoxicity assay (7-AAD viability, flow cytometry); conditions: Homo sapiens, U-937, ± standard error of the mean, 95% CI in parenthesis
# Source text: (§1) Cells, including Jurkat E6.1 (human leukemic T cell lymphoblasts, catalogue no. 88042803), K562 (human chronic myelogenous leukemia cells, catalogue no. 89121407), U937 (human histiocytic lymphoma cells, catalogue no. 85011440), HL60 (human promyelocytic leukemia cells, catalog no. 98070106), HEK293 (human embryonic kidney cells with adenovirus, catalog no. 85120602), and human lung fibroblasts Ce (catalogue no. 90011883), were purchased from the European Collection of Authenticated Cell Cultures (UK Health Security Agency) and cultured according to standard protocols using sterile techniques. […] Cells were maintained in RPMI 1640 (Jurkat, K562, U937, and HL60) and DME M (fibroblast and HEK293) (Gibco) supplemented with […] glutamine, 10% FBS (Sigma), and 100 units/mL penicillin-streptomycin (Sigma). All types of cells were grown under an atmosphere of 5% CO2 at 37 °C. The cells were subcultured at 2–3-day intervals. Cells were then seeded in 24-well plates at 5 × 10^4 cells per well and incubated overnight. Jurkat, K562, U937, HL60, HEK293, and fibroblast cells were subcultured at 2-day intervals with a seeding density of 1 × 10^5 cells per well in 24-well plates in RPMI with 10% FBS.
# (§2) Viability (live/dead) assessment was performed by staining cells with 7-AAD (7-aminoactinomycin D; Biolegend). After treatment, cells were harvested, washed 1–2 times with phosphate-buffered saline (PBS), and centrifuged at 400× g for 5 min. Cell pellets were resuspended in 200 µL of flow cytometry staining buffer (PBS without Ca^2+ and Mg^2+, 2.5% FBS) and stained with […] of 7-AAD staining solution for 15 min at room temperature in the dark. Samples were assessed using the NovoCyte Penteon Flow Cytometer System (Agilent, 5301 Stevens Creek Blvd., Santa Clara, CA, USA). Detection of 7-AAD emission was collected through a 675/30 nm filter in the FL4 channel.
# K562 = test: as above; conditions: Homo sapiens, ± standard error of the mean, 95% CI in parenthesis
# Source text: as §1, §2
# [1] = as above; conditions: human; Hek293, conditionally normal line; ± standard error of the mean, 95% CI in parenthesis
# Source text: as §1, §2
# Jurkat = test: as above; conditions: Homo sapiens, ± standard error of the mean, 95% CI in parenthesis
# Source text: as §1, §2
# HL60 = test: as above; conditions: Homo sapiens, HL-60, ± standard error of the mean, 95% CI in parenthesis
# Source text: as §1, §2
# Jurkat tumor cell line = test: Assessment of cytochrome c loss (FlowCellect Cytochrome c Kit); conditions: compound at CC50, incubation 3 h, anti-cytochrome c-FITC
# Experimental: Quantification of cytochrome c release from mitochondria in apoptotic cells was presented to detect the mitochondrial pathway of apoptosis in cells using flow cytometry with the FlowCellect™ Cytochrome c Kit (FCCH100110). For this, cells were treated with FITC-conjugated antibodies against cytochrome c and control anti-IgG1-FITC, together with the use of an optimized fixation procedure, permeabilization, and blocking buffer (Luminex®, USA). […] Jurkat cells were incubated for 4 h with the synthesized substances at a concentration corresponding to their 24-h CC50 in a culture plate and assessed using the NovoCyte Penteon Flow Cytometer System (Agilent, 5301 Stevens Creek Blvd., Santa Clara, CA, USA). The obtained data were processed using NovoExpress® software (ACEA).
# Jurkat cells [2] = test: Oxidative stress and early apoptosis (MitoSOX Red and annexin V, MitoStress Kit); conditions: compound at CC50, 4 h
# Source text: Changes in the mitochondrial membrane potential (ΔΨ) in Jurkat cells induced by treatment with the synthesized compounds were detected using MitoSOX Red, a positively charged probe that accumulates rapidly in mitochondria and as such can be used to detect superoxide/ROS production within mitochondria using fluorometry, microscopy, or flow cytometry. Live cells induced a low level of MitoSOX Red fluorescence, while cells with scattered mitochondrial membrane potential caused much higher MitoSOX Red fluorescence. Annexin V is a dye commonly used to detect early signs of apoptosis. […] Thus, using two different dyes, MitoSOX Red and annexin V (CF488A), in the FlowCellect™ MitoStress Kit (FCCH100109), we analyzed the mitochondrial membrane potential dissipation and associated apoptosis in Jurkat cells in response to the synthesized chatenaytrienins.
# Therefore, simultaneous detection of mitochondrial superoxide generation (detected by MitoSOX Red membrane-penetrating dye) and expression of phosphatidylserine on the cell surface of apoptotic cells (assessed by binding of annexin V) in the same cell sample provides an accurate evaluation of the ability of the test compound to initiate oxidative stress in cell culture and induce apoptosis.
# Jurkat cells [3] = test: Detection of mitodamage: mitochondrial membrane potential and apoptosis (MitoSense Red, annexin V, 7-AAD); conditions: compound at CC50, 4 h
# Source text: The use of reagents MitoSense Red, annexin V, and 7-AAD in the Millipore FlowCellect™ MitoDamage Kit allowed us to gain information on early, mid, and late apoptosis with one simple assay. […] After this time, the cells were dissociated using an accutase solution, stained, and analyzed using the NovoCyte Penteon Flow Cytometer System (Agilent, 5301 Stevens Creek Blvd., Santa Clara, CA, USA), according to the manufacturer’s protocols for the FlowCellect™ MitoDamage Kit and FlowCellect™ Oxidative Stress Characterization Kit (Merck).
# Detection of mitochondrial potential dissipation using MitoSense Red, annexin V, and 7-AAD provided a simultaneous measurement of three important parameters of the cell state within the same cell sample: the state of the mitochondrial potential (Δψ), detected by the membrane-penetrating MitoSense Red dye; the expression of phosphatidylserine on the cell surface of apoptotic cells, assessed by the binding of annexin V to externalized phosphatidylserine; and the binding of 7-AAD to DNA in cells in the late stages of apoptosis. Multiparametric evaluation of these indicators of cell viability made it possible to determine the correlation and relationship between oxidation dissipation and phosphorylation with apoptosis.
# [4] = Cytotoxicity assay (7-AAD viability, flow cytometry); conditions: human; normal fibroblasts; ± standard error of the mean, 95% CI in parenthesis
smiles,measurement,setting,value
"CCCCCCCCCC/C=C\CC/C=C\CC/C=C\CCCCCCCCCCC1=C[C@H](C)OC1=O [compound 1, chatenaytrienin-1]",CC50,U937,0.09 ± 0.02 µM
same,CC50,K562,0.1 ± 0.03 µM
same,CC50,[1],0.53 ± 0.02 µM
same,CC50,Jurkat,0.09 ± 0.02 µM
same,CC50,HL60,0.15 ± 0.01 µM
same,cells with cytochrome c released into the cytoplasm (Negative gate),Jurkat tumor cell line,61.67%
same,"cells demonstrating oxidative stress along with the marker of early apoptosis, annexin",Jurkat cells [2]; MitoSOX Red and annexin V,10.53%
same,cells in early apoptosis,Jurkat cells [2]; annexin V,75%
same,cells in late apoptosis (stained with 7-AAD),Jurkat cells [3]; Jurkat,15.11%
same,Jurkat tumor cells with the Δψ dissipation phenomenon,Jurkat cells [3]; MitoSense Red,83.69%
same,CC50,[4],0.69 ± 0.04 µM
